Measured values published in patent US5565342A (priority 1989, dated 1996).

How the values were obtained:
[1] = tested on: RON substance synthetase; test: Inhibition and activation of the enzyme by metal chlorides; type: biochemical, Leuconostoc mesenteroides subsp. dextranicum, BL-75; details: 1 mM metal chloride; not added = 100; 30 min
Method: A substrate solution comprising sucrose (60 w/v %) and an acetate buffer (0.3M, pH 5.5), which was warmed to 30° C. in advance, was mixed with an enzyme solution (0.5 to 1 U/ml) warmed to 30° C. in an amount 4 times the amount of the substrate solution, and the mixture was sufficiently stirred and the reaction was carried out at 30° C. for 30 minutes. To the reaction mixture a 40 mM of NaOH solution was added in an amount 5 times of the amount of the reaction mixture to stop the reaction. The reaction-stopped mixture was appropriately diluted and reducing sugar was determined as fructose by the Somogyi method [M. Somogyi, J. Biol. Chem., 160, 61 (1945)]. As the control, reducing sugar in the enzyme reaction-stopped mixture treated in the same manner without adding sucrose was determined as fructose, and correction was carried out. The quantity of sucrose participating in the reaction was determined from the quantity of fructose.
The relative activities at the addition of the different metal chlorides in the final concentration of 1 mM were determined by the standard method. The relative value was expressed in percent comparing with the activity without addition of any metal chloride.

[2] = tested on: RON substance synthetase; test: Substrate specificity of the enzyme; type: biochemical, Leuconostoc mesenteroides subsp. dextranicum, BL-75; details: as substrate of the enzyme

[Cl][Mn][Cl] [MnCl2]
Relative Activity [1]: 75%

OC[C@H]1OC(O)[C@H](O)[C@@H](O)[C@@H]1O (some centres unmarked) [glucose]
Formation of the RON substance (substrate specificity) [2]: not observed

[Cl][Fe][Cl] [FeCl2]
Relative Activity [1]: 103%

OC[C@H]1O[C@@](CO)(O[C@H]2O[C@H](CO)[C@@H](O)[C@H](O)[C@H]2O)[C@@H](O)[C@@H]1O [sucrose]
Formation of the RON substance (substrate specificity) [2]: reacts only with sucrose

OC[C@H]1O[C@H](OC[C@H]2OC(O)[C@H](O)[C@@H](O)[C@@H]2O)[C@H](O)[C@@H](O)[C@@H]1O (some centres unmarked) [isomaltose]
Formation of the RON substance (substrate specificity) [2]: not observed

O=C(CO)[C@@H](O)[C@H](O)[C@H](O)CO [fructose]
Formation of the RON substance (substrate specificity) [2]: not observed

[Ca+2].[Cl-].[Cl-] [CaCl2]
Relative Activity [1]: 110%

[Cl][Ni][Cl] [NiCl2]
Relative Activity [1]: 98%

OC[C@H]1O[C@H](O[C@H]2[C@H](O)[C@@H](O)C(O)O[C@@H]2CO)[C@H](O)[C@@H](O)[C@@H]1O (mixture of isomers) [maltose]
Formation of the RON substance (substrate specificity) [2]: not observed

[Cl-].[Cl-].[Co+2] [CoCl2]
Relative Activity [1]: 95%

[Cl][Cu][Cl] [CuCl2]
Relative Activity [1]: 50%

[Cl][Fe]([Cl])[Cl] [FeCl3]
Relative Activity [1]: 82%

[Cl-].[Cl-].[Zn+2] [ZnCl2]
Relative Activity [1]: 93%

[Cl-].[Cl-].[Mg+2] [MgCl2]
Relative Activity [1]: 78%
